One assay has as its target PIM1 (Homo sapiens, UniProt P11309). Kind of assay: Pim 1 AlphaScreen assay (high ATP). In kind it is biochemical. Particulars: read-out: Pim1 IC50. The essentials: (§1)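 This is a bead-based AlphaScreen run at high ATP (11-125× Km) with biotin-Bad peptide (100 nM in the substrate mix), in 50 mM Hepes pH 7.5, 5 mM MgCl2, 0.05% BSA, 0.01% Tween-20, 1 mM DTT and 2.5% DMSO final. After ~2 h the reaction was stopped with EDTA. Phospho-peptide was detected overnight with anti-phospho Ser/Thr antibody on Protein A and streptavidin beads, giving IC50.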

Another assay concerns the target GSK3β (Homo sapiens, UniProt P49841). Kind of assay: GSK3β ATP depletion assay. Format: biochemical. Conditions: ATP depletion assay; read-out: GSK3b IC50. The essentials: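 Human GSK3β (5 nM) preincubated 15 min with 10 μM biotinylated phospho-CREB peptide in pH 7.5 Tris buffer (15 mM MgCl2, 1 mM DTT, 0.1% BSA, 2.5% DMSO). Reaction started with 2 μM ATP and run to about 50% ATP depletion. Remaining ATP measured by KinaseGlo luminescence.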

A further assay deals with PIM2 (Homo sapiens, UniProt Q9P1W9). Kind of assay: Pim 2 AlphaScreen assay (high ATP). In kind it is biochemical. Particulars: read-out: Pim2 IC50. The essentials:
as §1

Another assay concerns the target PIM3 (Homo sapiens, UniProt Q86V86). Kind of assay: Pim 3 AlphaScreen assay (high ATP). Format: biochemical. Conditions: read-out: Pim3 IC50. Summed up:
as §1

Assay [1] has as its system KMS11 (human myeloma cell line). Kind of assay: Cell proliferation assay (CellTiter-Glo), KMS11. Particulars: Homo sapiens, KMS-11; KMS11 cells, cell proliferation; read-out: KMS11-Luc EC50. In kind it is cell-based. The essentials:
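KMS11 cells in IMDM with 10% FBS and sodium pyruvate, seeded at 2000 cells/well on assay day. Compound added at 2× to equal volume of cells, incubated 3 days at 37° C. Viability read by CellTiter-Glo luminescence; EC50 derived.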
(Cellular ATP, detected with luciferase, serves as a proxy for viable cell number.)

Chain of GSK3β (P49841 whole entry, species assumed): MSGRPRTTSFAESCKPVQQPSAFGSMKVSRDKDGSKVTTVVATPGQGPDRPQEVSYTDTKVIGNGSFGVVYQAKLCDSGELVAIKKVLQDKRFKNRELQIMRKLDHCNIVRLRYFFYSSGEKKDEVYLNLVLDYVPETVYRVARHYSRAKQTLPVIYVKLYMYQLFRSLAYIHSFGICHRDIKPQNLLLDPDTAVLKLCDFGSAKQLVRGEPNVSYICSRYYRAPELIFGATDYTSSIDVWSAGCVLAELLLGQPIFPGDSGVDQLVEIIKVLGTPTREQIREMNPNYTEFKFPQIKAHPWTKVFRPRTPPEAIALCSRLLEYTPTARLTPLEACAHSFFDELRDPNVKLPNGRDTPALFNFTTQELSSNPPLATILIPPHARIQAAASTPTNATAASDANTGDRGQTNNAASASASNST
Chain of PIM2 (Q9P1W9 whole entry): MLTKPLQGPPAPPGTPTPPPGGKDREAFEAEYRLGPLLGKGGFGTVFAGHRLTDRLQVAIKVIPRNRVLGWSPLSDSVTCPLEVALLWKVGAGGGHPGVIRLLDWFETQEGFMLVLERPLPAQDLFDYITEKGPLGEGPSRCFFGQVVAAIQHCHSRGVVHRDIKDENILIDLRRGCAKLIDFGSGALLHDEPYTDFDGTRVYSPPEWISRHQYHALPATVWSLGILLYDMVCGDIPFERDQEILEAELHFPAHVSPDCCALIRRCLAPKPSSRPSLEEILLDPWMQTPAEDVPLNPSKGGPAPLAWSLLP
Chain of PIM1 (P11309 whole entry): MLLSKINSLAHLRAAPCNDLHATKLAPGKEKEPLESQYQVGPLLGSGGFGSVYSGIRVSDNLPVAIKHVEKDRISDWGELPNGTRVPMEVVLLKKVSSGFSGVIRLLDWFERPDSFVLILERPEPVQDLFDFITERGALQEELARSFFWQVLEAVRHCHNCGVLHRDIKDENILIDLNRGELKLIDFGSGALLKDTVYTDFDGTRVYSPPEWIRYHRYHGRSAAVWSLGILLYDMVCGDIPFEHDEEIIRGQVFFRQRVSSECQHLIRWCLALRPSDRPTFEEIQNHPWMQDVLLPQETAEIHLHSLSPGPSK

Consider `CNC(=O)c1ccc(F)c(-c2nc(C(=O)Nc3cnccc3C3C[C@@H](N)[C@H](O)[C@@H](C(C)C)O3)ccc2F)c1F` (stereo in doubt) [Example 316, N-(4-((2S,4R,5S,6R)-4-amino-5-hydroxy-6-isopropyltetrahydro-2H-pyran-2-yl)pyridin-3-yl)-6-(2,6-difluoro-3-(methylcarbamoyl)phenyl)-5-fluoropicolinamide], for which the IC50 at PIM1 was found to be 0.27 nM; on GSK3β, 4390 nM; at PIM2, 5.1 nM; on PIM3, 5.76 nM. The EC50 in assay [1] was determined as 60 nM.

Consider `CC(C)[C@H]1OC(c2ccncc2NC(=O)c2ccc(F)c(-c3c(F)ccc(C(=O)N(C)C)c3F)n2)C[C@@H](N)[C@@H]1O` (stereo in doubt) [Example 317, N-(4-((2S,4R,5S,6R)-4-amino-5-hydroxy-6-isopropyltetrahydro-2H-pyran-2-yl)pyridin-3-yl)-6-(3-(dimethylcarbamoyl)-2,6-difluorophenyl)-5-fluoropicolinamide], for which the IC50 at PIM1 is 1 nM; at GSK3β it was above 25000 nM; on PIM2 it was 6.6 nM; on PIM3, 9.6 nM. For the same compound, in assay [1], the EC50 is 80 nM.

For the compound `COCCOc1cc(F)c(-c2nc(C(=O)Nc3cnccc3C3C[C@@H](N)[C@H](O)[C@@H](C(C)C)O3)ccc2F)c(F)c1` (stereo in doubt) [Example 318, N-(4-((2S,4R,5S,6R)-4-amino-5-hydroxy-6-isopropyltetrahydro-2H-pyran-2-yl)pyridin-3-yl)-6-(2,6-difluoro-4-(2-methoxyethoxy)phenyl)-5-fluoropicolinamide], the IC50 at PIM1 worked out at 0.05 nM; on GSK3β, 1160 nM; at PIM2, 2.3 nM; at PIM3 it was 1.7 nM. Besides, the EC50 in assay [1] came to 80 nM.

As to `CC(C)[C@H]1OC(c2ccncc2NC(=O)c2ccc(F)c(-c3c(F)cc(OCCO)cc3F)n2)C[C@@H](N)[C@@H]1O` (stereo in doubt) [Example 319, N-(4-((2S,4R,5S,6R)-4-amino-5-hydroxy-6-isopropyltetrahydro-2H-pyran-2-yl)pyridin-3-yl)-6-(2,6-difluoro-4-(2-hydroxyethoxy)phenyl)-5-fluoropicolinamide], the IC50 on PIM1 stood at 0.07 nM; at GSK3β, 1570 nM; at PIM2, 3.5 nM; at PIM3, 1.8 nM. Besides, the concentration giving a half-maximal response (EC50) in assay [1] was 30 nM.

Consider `C[C@H]1O[C@@H](c2ccncc2NC(=O)c2nn(Cc3ccccc3)cc2N)C[C@@H](O)[C@]1(C)O` [Example 218, 4-amino-1-benzyl-N-(4-((2R,4R,5S,6R)-4,5-dihydroxy-5,6-dimethyltetrahydro-2H-pyran-2-yl)pyridin-3-yl)-1H-pyrazole-3-carboxamide], for which the IC50 at PIM1 is 12500 nM; on GSK3β, 1290 nM; at PIM2, above 25000 nM; at PIM3, above 25000 nM. In assay [1], the EC50 was above 10000 nM.

For `C[C@@H]1O[C@H](c2ccncc2NC(=O)c2ccc(F)c(-c3c(F)cccc3F)n2)C[C@H](N)[C@@]1(C)O` [Example 220, N-(4-((2S,4S,5R,6S)-4-amino-5-hydroxy-5,6-dimethyltetrahydro-2H-pyran-2-yl)pyridin-3-yl)-6-(2,6-difluorophenyl)-5-fluoropicolinamide], the IC50 is 2.09 nM on PIM1, 9140 nM on GSK3β, 228 nM on PIM2 and 29.9 nM on PIM3. Further, the EC50 in assay [1] was found to be 6210 nM.

In the case of `Cc1cc(F)c(-c2nc(C(=O)Nc3cnccc3[C@@H]3C[C@@H](N)CC(C)(C)O3)ccc2F)c(F)c1` [Example 313, N-(4-((2S,4R)-4-amino-6,6-dimethyltetrahydro-2H-pyran-2-yl)pyridin-3-yl)-6-(2,6-difluoro-4-methylphenyl)-5-fluoropicolinamide], the half-maximal inhibitory concentration (IC50) at PIM1 came out at 0.06 nM; at GSK3β, 128 nM; at PIM2, 8.6 nM; on PIM3 it was 1.4 nM. Moreover, the EC50 in assay [1] was determined as 360 nM.

As to `CC1(C)C[C@H](N)C[C@@H](c2ccncc2NC(=O)c2ccc(F)c(-c3c(F)cc(OCCO)cc3F)n2)O1` [Example 314, N-(4-((2S,4R)-4-amino-6,6-dimethyltetrahydro-2H-pyran-2-yl)pyridin-3-yl)-6-(2,6-difluoro-4-(2-hydroxyethoxy)phenyl)-5-fluoropicolinamide], the IC50 at PIM1 came out at 0.05 nM; on GSK3β it was 109 nM; on PIM2 it was 7.5 nM; on PIM3 it was 1.1 nM. The EC50 in assay [1] was found to be 60 nM.

As for `COCCOc1cc(F)c(-c2nc(C(=O)Nc3cnccc3[C@@H]3C[C@@H](N)CC(C)(C)O3)ccc2F)c(F)c1` [Example 315, N-(4-((2S,4R)-4-amino-6,6-dimethyltetrahydro-2H-pyran-2-yl)pyridin-3-yl)-6-(2,6-difluoro-4-(2-methoxyethoxy)phenyl)-5-fluoropicolinamide], the IC50 was found to be 0.07 nM on PIM1, 121 nM at GSK3β, 11.7 nM on PIM2 and 1.5 nM at PIM3. In addition, the EC50 in assay [1] came to 200 nM.

For the compound `C[C@H]1O[C@@H](c2ccncc2NC(=O)c2ccc(F)c(-c3ccccc3)n2)C[C@@H](N)[C@]1(C)O` [Example 320, N-(4-((2R,4R,5S,6R)-4-amino-5-hydroxy-5,6-dimethyltetrahydro-2H-pyran-2-yl)pyridin-3-yl)-5-fluoro-6-phenylpicolinamide], the IC50 on PIM1 stood at 1 nM; on GSK3β, 3250 nM; on PIM2, 245 nM; on PIM3, 42 nM. In addition, in assay [1], the EC50 came to 4670 nM.

As to `C[C@H]1O[C@@H](c2ccncc2NC(=O)c2ccc(F)c(-c3ccc(S(C)(=O)=O)cc3)n2)C[C@@H](N)[C@]1(C)O` [Example 321, N-(4-((2R,4R,5S,6R)-4-amino-5-hydroxy-5,6-dimethyltetrahydro-2H-pyran-2-yl)pyridin-3-yl)-5-fluoro-6-(4-(methylsulfonyl)phenyl)picolinamide], the 50% inhibitory concentration (IC50) turned out to be 4.7 nM at PIM1, 1880 nM on GSK3β, 1370 nM at PIM2 and 783 nM at PIM3. Further, the EC50 in assay [1] is above 10000 nM.

`Cc1cc(F)c(-c2nc(C(=O)Nc3cnccc3[C@H]3C[C@@H](N)[C@H](O)[C@@H](C4CC4)O3)ccc2F)c(F)c1` [Example 322, N-(4-((2R,4R,5S,6R)-4-amino-6-cyclopropyl-5-hydroxytetrahydro-2H-pyran-2-yl)pyridin-3-yl)-6-(2,6-difluoro-4-methylphenyl)-5-fluoropicolinamide]: the IC50 on PIM1 was 0.3 nM; at GSK3β, 5240 nM; on PIM2 it was 6.7 nM; at PIM3, 9 nM. Also, the EC50 in assay [1] is 230 nM.

Regarding `COc1cc(F)c(-c2nc(C(=O)Nc3cnccc3[C@H]3C[C@@H](N)[C@H](O)[C@@H](C4CC4)O3)ccc2F)c(F)c1` [Example 323, N-(4-((2R,4R,5S,6R)-4-amino-6-cyclopropyl-5-hydroxytetrahydro-2H-pyran-2-yl)pyridin-3-yl)-6-(2,6-difluoro-4-methoxyphenyl)-5-fluoropicolinamide], the IC50 on PIM1 turned out to be 0.3 nM; on GSK3β it was 4200 nM; on PIM2, 13.4 nM; on PIM3, 9.7 nM. The EC50 in assay [1] stood at 190 nM.

For the compound `Cc1cc(F)c(-c2nc(C(=O)Nc3cnccc3[C@@H]3C[C@H](N)[C@@H](O)[C@H](C4CC4)O3)ccc2F)c(F)c1` [Example 324, N-(4-((2S,4S,5R,6S)-4-amino-6-cyclopropyl-5-hydroxytetrahydro-2H-pyran-2-yl)pyridin-3-yl)-6-(2,6-difluoro-4-methylphenyl)-5-fluoropicolinamide], the IC50 on PIM1 is 3.4 nM; at GSK3β, above 25000 nM; on PIM2 it was 396 nM; at PIM3 it was 184 nM. Moreover, the EC50 in assay [1] amounted to 4320 nM.

On to `CC[C@H]1O[C@@H](c2ccncc2NC(=O)c2ccc(F)c(-c3c(F)cccc3F)n2)C[C@@H](N)[C@@H]1O` [Example 331, N-(4-((2R,4R,5S,6R)-4-amino-6-ethyl-5-hydroxytetrahydro-2H-pyran-2-yl)pyridin-3-yl)-6-(2,6-difluorophenyl)-5-fluoropicolinamide], for which the IC50 on PIM1 was found to be 0.2 nM; at PIM2, 11.8 nM; on PIM3 it was 6 nM. Moreover, the EC50 in assay [1] was determined as 70 nM.

`CC[C@@H]1O[C@H](c2ccncc2NC(=O)c2ccc(F)c(-c3c(F)cccc3F)n2)C[C@H](N)[C@H]1O` [Example 332, N-(4-((2S,4S,5R,6S)-4-amino-6-ethyl-5-hydroxytetrahydro-2H-pyran-2-yl)pyridin-3-yl)-6-(2,6-difluorophenyl)-5-fluoropicolinamide]: the results for the 50% inhibitory concentration (IC50) at PIM1, on PIM2 and at PIM3 were 6.3 nM, 310 nM and 157 nM, respectively. Also, the EC50 in assay [1] amounted to 4200 nM.

What is called IC50 is the point on the concentration scale where inhibition reaches its midpoint. As a reminder, the EC50 is the midpoint of the concentration-response curve.

(Values after patent US20130109682A1, “CYCLIC ETHER COMPOUNDS USEFUL AS KINASE INHIBITORS” (NOVARTIS AG, priority 2010, published 2013).)
